Patent US8895717B2, “Delivery of siRNA by neutral lipid compositions” (The Board of Regents of the University of Texas System, priority 2005, dated 2014)
pIC50: −log10 of the molar value.

Legend:
[1] = test system: SKOV3-TR and HeyA8-MDR cells; assay: TUNEL apoptosis assay, taxane-resistant cells; type: cell-based, human
Description: (§1) Terminal deoxynucleotidyl transferase-mediated nick end labeling-positive cells were detected using Dead End Fluorometric terminal deoxynucleotidyl transferase-mediated nick end labeling system (APO-DIRECT, BD Biosciences/PharMingen, San Diego, Calif.) according to the manufacturer's instructions. Briefly, ovarian cancer cells in culture were treated with varying concentrations of docetaxel and harvested after 12, 24, 48, or 96 hours. Cells were fixed with 4% paraformaldehyde solution for 25 minutes on ice. Intracellular DNA fragments were then labeled by exposing cells to fluorescein-12-dUTP, treated with propidium iodide and RNaseA solution, and analyzed by flow cytometry (EPICS XL, Beckman Coulter, Miami, Fla.). The percentages of apoptotic cells were averaged over three consecutive experiments.

[2] = test system: SKOV3 cells; assay: Cytotoxicity assay (MTT), SKOV3; type: cell-based, human; details: Homo sapiens, SK-OV-3; SKOV3, 96 hours
Description: (§2) The medium was exchanged after 48 hours with increasing concentrations of docetaxel (obtained from Aventis Pharma, Bridgewater, N.J.) dissolved in ethanol (final concentration range, 0.1-10,000 nmol/L prepared in medium) or cisplatin (purchased from LKT Laboratories, Inc., St. Paul, Minn.) dissolved in water. After a 96-hour incubation, 50 μL of 0.15% 3-(4,5-dimethylthiazol-2-yl)-2,5-diphenyltetrazolium bromide was added to each well and incubated for 2 hours. The supernatant was removed, and cells were dissolved in 100 μL DMSO. The absorbance at 570 nm was recorded using a FALCON microplate reader (Becton Dickinson Labware, Bedford, Mass.), and cell survival expressed as a percent increase or decrease above control conditions, after subtracting blank A570 readings. The IC50 concentration was determined by finding the A570 reading midpoint between maximal and minimal readings and finding the chemotherapy concentration that intersects the growth curve at that A570 reading.

[3] = test system: SKOV3-TR cells; assay: Cytotoxicity assay (MTT), SKOV3-TR; type: cell-based, human
Description: as §2

[4] = test system: HeyA8-MDR cells; assay: Cytotoxicity assay (MTT), HeyA8-MDR; type: cell-based, human
Description: as §2

[5] = test system: HeyA8 cells; assay: TUNEL apoptosis assay, HeyA8; type: cell-based, human
Description: as §1, with “Briefly, ovarian cancer cells in culture were treated with varying concentrations of docetaxel and harvested after 12, 24, 48, or 96 hours.” left out

[6] = test system: caspase-3; assay: Caspase-3 activity in ovarian cancer cells (DEVD-AFC); type: cell-based, human; details: for increase in caspase-3 activity: 24 hours
Description: Ovarian cancer cells (1×10^6) in culture (six-well plates) were treated with or without docetaxel at the cell line specific IC50 or IC90 concentration for 24 hours. After washing with PBS, cells were lysed in 50 μL of cell lysis buffer provided. Caspase-3, caspase-8, and caspase-9 activities were measured with the appropriate apoptosis detection kit (BD Biosciences/Clontech, Palo Alto, Calif.), using substrate DEVD-AFC for caspase-3, IETD-AFC for caspase-8, and LEHD-AMC for caspase-9.

[7] = test system: FAK; assay: FAK cleavage in response to docetaxel, Western blot; type: cell-based, human
Description: Cells were lysed in modified RIPA buffer (50 mM Tris, 150 mM NaCl, 1% triton, 0.5% deoxycholate plus 25 µg/ml leupeptin, 10 µg/ml aprotinin, 2 mM EDTA, and 1 mM sodium orthovanadate (Sigma Chemical Co, St. Louis, Mo.) as previously described (Sood et al., 2004; Sood et al., 2002). A sample was removed from culture dishes by cell scraping and centrifuged at 12,500 rpm for 30 min. The […] protein concentration of the supernatant was determined using a bicinchoninic acid protein assay reagent kit (Pierce, Rockford, Ill.), and whole cell lysates were analyzed by 7.5% SDS-PAGE. Samples were then transferred to nitrocellulose membrane by semi-dry transfer (BioRad Laboratories, Hercules, Calif.). Membranes were blocked with 5% nonfat milk, and incubated with 0.25 μg/mL anti-FAK antibody (Biosource, International Camarillo, Calif.) for 1 h at room temperature. Antibody was detected with 0.167 μg/mL HRP-conjugated anti-mouse secondary antibody (The Jackson Laboratory, Bar Harbor, Me.) and developed with an enhanced chemiluminescence detection kit (Pierce). Equal loading was confirmed by detection of β-actin (0.1 μg/ml, anti-β-actin antibody, Sigma Chemical). Densitometric analysis was performed using the Scion Imaging software (Scion Corporation, Frederick, Md.).
It has been reported that FAK may be cleaved by caspase-3 (Gervais et al., 1998; Sasaki et al., 2002; Carragher et al., 2001). Based on observations regarding modulation of caspase levels by docetaxel in ovarian cancer cells, FAK cleavage after treatment with docetaxel was examined and whether there are differences in extent of FAK cleavage between the taxane-sensitive and taxane-resistant cell lines. In SKOV3 cells, FAK was cleaved after 48 and 72 hours of exposure to docetaxel (FIG. 7A). The 71-kDa fragments increased after treatment with docetaxel, whereas the 125-kDa fragments decreased. […] To study the dependence of FAK cleavage on caspase-3, the effect of DEVDfmk (caspase-3 inhibitor) was examined.

[8] = test system: HeyA8 cells; assay: Cytotoxicity assay (MTT), HeyA8; type: cell-based, human; details: Homo sapiens, HEY A8; HeyA8, 96 hours
Description: as §2

[9] = test system: SKOV3 cells; assay: TUNEL apoptosis assay, SKOV3; type: cell-based, human
Description: as §1, with “Briefly, ovarian cancer cells in culture were treated with varying concentrations of docetaxel and harvested after 12, 24, 48, or 96 hours.” left out

[10] = test system: VEGF mRNA; assay: VEGF mRNA expression, real-time RT-PCR; type: cell-based, human
Description: Total RNA was extracted (Trizol reagent; Invitrogen Co, Carlsbad, Calif.) and reverse transcribed using an oligo(dT) primer and M-MLV reverse transcriptase (Life Technologies, Inc., Rockville, Md.) in a final reaction volume of 20 μl (60 min at 42° C.). PCR amplifications are performed using the ABI Prism 7700 Sequence Detection System with TaqMan One-Step RT-PCR Master Mix Reagent kit (PE Applied Biosystems, Foster City, Calif.). Quantitative values are obtained from the Ct value, at which the increase in fluorescent signal associated with exponential growth of PCR products starts to be detected by the laser detector of the Sequence Detection System, using the analysis software according to the manufacturer's instructions (each sample is normalized on the basis of its I8S content). The VEGF primers were obtained from Applied Biosystems (Item number HS00173626-ml). βAR expression was examined with semi-quantitative RT-PCR using the following primers: βAR (forward, 5′-[…]-3′ (SEQ ID NO:13), reverse, 5′-[…]-3′) (SEQ ID NO:14); β2AR (forward, 5′-[…]-3′ (SEQ ID NO:15), reverse, 5′-[…]-3′) (SEQ ID NO:16).

[11] = test system: A2780 and RMG-II cells; assay: Intracellular cAMP in βAR negative cell lines; type: cell-based, human
[12] = test system: HeyA8 cells; assay: Daily β-agonist treatment of mice bearing HeyA8 ovarian cancer cells; type: in vivo, nude mice; details: 10 mg/kg daily
Description: Mice habituated to vivarium conditions for 1 week before the initiation of stress procedures. A restraint-stress procedure was used based on previous studies (Sheridan et al., 1991), substituting a novel Mouse Restraint System (FIG. 15A) for conical centrifuge tubes. In this system, up to 10 mice are placed in individual slots, and each slot can be adjusted to restrain the animal for a desired length of time. In the present study, restraint stress began between 8 a.m. and 10 a.m., and lasted for 2-6 hours for up to 21 days. The ovarian cancer cell lines were harvested from subconfluent cultures by a brief exposure to 0.25% trypsin and 0.02% EDTA, resuspended in Hank's balanced salt solution (HBSS), and tested for >95% viability by trypan blue dye exclusion. The HeyA8 cells were injected i.p. into mice at a concentration of 2.5×10^5 cells while the other cell lines were injected at 1.0×10^6 cells per 0.2 ml HBSS, ten days after starting stress in all groups. Animals were necropsied 21 days after tumor injection, and tumors in the peritoneal cavity were excised, weighed, and documented for location. Immunohistochemistry and H&E staining procedures were carried out on formalin-fixed paraffin-embedded tumors.
Starting 4 days after tumor cell injection, mice bearing HeyA8 ovarian cancer cells (n=10 per group) were treated daily with either 1) PBS; 2) isoproterenol (non-specific β-agonist) 10 mg/kg; 3) terbutaline (β2-agonist) 5 mg/kg; 4) xamoterol (β1-agonist) 1 mg/kg; or 5) isoproterenol plus 2 mg/kg of the non-specific β-antagonist propranolol.

[13] = test system: HeyA8 tumor samples; assay: Mean vessel density (CD31) in HeyA8 tumor samples; type: in vivo, nude mice; details: daily agonist treatment
Description: Paraffin sections were stained for CD31 (1:800 dilution, Pharmingen, San Jose, Calif.), MMP-2 (1:500 dilution, Chemicon, Temecula, Calif.), MMP-9 (1:200 dilution, Calbiochem, San Diego, Calif.), VEGF (1:500 dilution, Santa Cruz Biotechnology, Santa Cruz, Calif.) and bFGF (1:1,000 dilution, Sigma, St. Louis, Mo.) at 4° C. Samples were stained with a biotinylated goat anti-rabbit antibody for 30 min (prediluted), followed by strepavidin horseradish peroxidase for 30 min (1:300 dilution), and visualized in 3,3′-diaminobenzidine (DAB) for 5-10 min.
To quantify MVD, 10 random 0.159 mm^2 fields at 100× magnification were examined for each tumor, and the microvessels within those fields were counted. A single microvessel was defined as a discrete cluster of cells stained CD31(+), and the presence of a lumen was required for scoring as a microvessel.

SMILES: CC(=O)O[C@@]12CO[C@@H]1C[C@H](O)[C@@]1(C)C(=O)[C@H](O)C3=C(C)[C@@H](OC(=O)[C@H](O)[C@@H](NC(=O)OC(C)(C)C)c4ccccc4)C[C@@](O)([C@@H](OC(=O)c4ccccc4)[C@H]21)C3(C)C [docetaxel]
- apoptosis ([1]; FAK siRNA with or without docetaxel): neither agent alone induced much apoptosis
- level of apoptosis ([1]; docetaxel with or without DEVD-fmk): remained low
- pIC50 [2]: 8.21
- pIC50 ([3]; Homo sapiens, SKOV3TR, SKOV3-TR, 96 hours): 6.65
- fold more resistant to docetaxel ([3]; SKOV3-TR versus SKOV3): 36 fold
- fold more resistant to docetaxel ([4]; HeyA8-MDR versus HeyA8): 300 fold
- pIC50 ([4]; Homo sapiens, HeyA8-MDR, 96 hours): 6.35
- apoptosis ([5]; HeyA8, IC20 level of docetaxel, FAK siRNA 48 hours before): ~42%
- proportion of apoptotic cells ([5]; HeyA8, docetaxel 72 hours without or with DEVD-fmk): 56%
- proportion of apoptotic cells ([5]; HeyA8, docetaxel 96 hours): 66%
- increase in caspase-3 activity ([6]; HeyA8, IC50 level of docetaxel): 1.8 fold
- increase in caspase-3 activity ([6]; HeyA8, IC90 level of docetaxel): 2.5 fold
- increase in caspase-3 activity ([6]; SKOV3, IC50 level of docetaxel): 2.8 fold
- increase in caspase-3 activity ([6]; SKOV3, IC90 level of docetaxel): 5.4 fold
- induction of caspase activity ([6]; resistant SKOV3-TR and HeyA8-MDR, IC50 and IC90 levels for sensitive lines, caspase-3, -8, -9): not able to induce caspase activity
- FAK cleavage ([7]; SKOV3, 48 and 72 hours): cleaved
- FAK cleavage ([7]; SKOV3-TR and HeyA8-MDR): did not show any increase in FAK cleavage products
- pIC50 [8]: 9.00
- apoptosis ([9]; SKOV3, IC20 level of docetaxel, FAK siRNA 48 hours before): about 41%
- proportion of apoptotic cells ([9]; SKOV3, docetaxel 72 hours without or with DEVD-fmk): 72%
- proportion of apoptotic cells ([9]; SKOV3, docetaxel 96 hours): 84%

SMILES: NC[C@H](O)c1ccc(O)c(O)c1 [norepinephrine]
- increase in VEGF mRNA expression ([10]; SKOV3ip1, peak 1.5 hours following treatment): 8.4 fold
- VEGF expression ([10]; βAR-negative A2780 cells): no increase in VEGF expression
- intracellular cAMP levels after stimulation [11]: neither of the βAR negative cell lines showed an increase in intracellular cAMP levels

SMILES: CC(C)NCC(O)c1ccc(O)c(O)c1 (centres unmarked) [isoproterenol]
- effect on VEGF mRNA ([10]; SKOV3ip1, forskolin 1 μM, db-cAMP 1 mM): mimicked
- intracellular cAMP levels after stimulation [11]: neither of the βAR negative cell lines showed an increase in intracellular cAMP levels
- increase in average tumor weight compared to control [12]: 266%
- increase in mean number of tumor nodules compared to control [12]: 341%
- MVD counts [13]: significantly higher MVD counts compared to controls
